# Results published in US20140135357A1, “DOSE REGIME FOR CAMPTOTHECIN DERIVATIVES” (Taiwan Liposome Company, Ltd., priority 2012, published 2014).
# Assay: Phase I clinical trial: pharmacokinetic analysis of TLC388HCl diastereomers and metabolites after IV infusion
# Settings: for difference between PK profiles on Day 1 and Day 8: Cycle 1; for half-life: plasma, after IV administration of TLC388HCl composition
# [1] = Day 1, dose group 1.5 mg/m^2 TLC388HCl, Mean (SD)
# [2] = Day 1, dose group 3.0 mg/m^2 TLC388HCl, Mean (SD)
# [3] = Day 1, dose group 6.0 mg/m^2 TLC388HCl, Mean (SD)
# [4] = Day 1, dose group 9.0 mg/m^2 TLC388HCl, Mean (SD)
# [5] = Day 1, dose group 20.0 mg/m^2 TLC388HCl, Mean (SD)
# [6] = Day 1, dose group 30.0 mg/m^2 TLC388HCl, Mean (SD)
# [7] = Day 1, dose group 35.0 mg/m^2 TLC388HCl, Mean (SD)
# [8] = Day 1, dose group 40.0 mg/m^2 TLC388HCl, Mean (SD)
# [9] = Day 1, dose group 50.0 mg/m^2 TLC388HCl, Mean (SD)
# [10] = Day 1, dose group 60.0 mg/m^2 TLC388HCl, Mean (SD)
# [11] = Day 8, dose group 1.5 mg/m^2 TLC388HCl, Mean (SD)
# [12] = Day 8, dose group 3.0 mg/m^2 TLC388HCl, Mean (SD)
# [13] = Day 8, dose group 6.0 mg/m^2 TLC388HCl, Mean (SD)
# [14] = Day 8, dose group 9.0 mg/m^2 TLC388HCl, Mean (SD)
# [15] = Day 8, dose group 20.0 mg/m^2 TLC388HCl, Mean (SD)
# [16] = Day 8, dose group 30.0 mg/m^2 TLC388HCl, Mean (SD)
# [17] = Day 8, dose group 35.0 mg/m^2 TLC388HCl, Mean (SD)
# [18] = Day 8, dose group 40.0 mg/m^2 TLC388HCl, Mean (SD)
# [19] = Day 8, dose group 50.0 mg/m^2 TLC388HCl, Mean (SD)
# [20] = Day 8, dose group 60.0 mg/m^2 TLC388HCl, Mean (SD)
# [21] = patients treated with 60 mg/m^2 of TLC388HCl (N = 6)
# Experimental: A non-randomized phase I clinical trial was conducted at 4 institutions in the US and Taiwan.
# Patients were included in this trial if they are over the age of 18, with advanced cancer and the ECOG performance status is 0 or 1. […] Patients were excluded from the study if they have previously received more than 3 regimens of chemotherapy, or if they have received chemotherapy or radiotherapy within 4 weeks of the trial recruitment.
# Eligible patients were given the pharmaceutical composition of the present invention, comprising a mixture of TLC388HCl and mPEG2000-DSPE in a molar ratio of 1:0.7 to 1:0.9 (known as Lipotecan®). […] The pharmaceutical composition was administered as a 30-min IV infusion, on days 1, 8, and 15 of a 28-day cycle (i.e. 3 IV infusions per 28-day cycle).
# Serum samples were collected from the patients for pharmacokinetic analysis on day 1, day 8 and day 15 of Cycles 1 and 2, at the following times:
# Post IV infusion: (Day 1 and 8 of Cycle 1): 33 min; 40 min; 50 min; 1 h; 1 h 30 min; 2 h; 4 h and 8 h. Post IV infusion (Day 15 of Cycle 1 and Day 1, 8, and 15 of Cycle 2): 4 h. Patients were assessed every 8 weeks, after 2 cycles of treatments.
# During the 2-cycle study period, the patients were examined regularly for the following outcomes: • Side effect/DLT; • The pK profiles of the (S,S) and (S,R) diastereomers of TLC388HCl, its 3 metabolites (TLC-U1, TLC-U2 and Topotecan) on day 1 and day 8 of the treatment cycle; and • Anti-cancer efficacy.
compound,measurement,setting,value
"CCC1(OC(=O)C(C)ON=C2c3cc([N+](=O)[O-])cc([N+](=O)[O-])c3-c3c2cc([N+](=O)[O-])cc3[N+](=O)[O-])C(=O)OCc2c1cc1n(c2=O)Cc2cc3c(CN(C)C)c(O)ccc3nc2-1.Cl (stereo not drawn) [S,S TLC388HCl]",difference between PK profiles on Day 1 and Day 8,,no significant difference
same,AUC0-t,[1],2.190 ng·h/mL
same,Cmax,[1],4.492 ng/mL
same,Tmax,[1],0.606 (0.106) hr
same,t1/2,[1],2.792 (3.856) hr
same,AUC0-t,[2],6.136 ng·h/mL
same,Cmax,[2],3.857 ng/mL
same,Tmax,[2],0.933 (0.936) hr
same,AUC0-t,[3],1.866 ng·h/mL
same,Cmax,[3],5.763 ng/mL
same,Tmax,[3],0.467 (0.209) hr
same,AUC0-t,[4],1.141 ng·h/mL
same,Cmax,[4],2.985 ng/mL
same,Tmax,[4],0.429 (0.212) hr
same,t1/2,[4],0.074 (0.033) hr
same,AUC0-t,[5],14.699 ng·h/mL
same,Cmax,[5],51.193 ng/mL
same,Tmax,[5],0.250 (0.000) hr
same,t1/2,[5],0.432 (0.260) hr
same,AUC0-t,[6],5.227 ng·h/mL
same,Cmax,[6],18.623 ng/mL
same,Tmax,[6],0.454 (0.276) hr
same,t1/2,[6],0.160 (0.034) hr
same,AUC0-t,[7],212.19 ng·h/mL
same,Cmax,[7],417.03 ng/mL
same,Tmax,[7],0.679 (0.116) hr
same,t1/2,[7],2.221 (0.789) hr
same,AUC0-t,[8],17.287 ng·h/mL
same,Cmax,[8],47.220 ng/mL
same,Tmax,[8],0.415 (0.152) hr
same,t1/2,[8],0.457 (0.812) hr
same,AUC0-t,[9],23.967 ng·h/mL
same,Cmax,[9],76.840 ng/mL
same,Tmax,[9],0.403 (0.143) hr
same,t1/2,[9],0.218 (0.075) hr
same,AUC0-t,[10],18.196 ng·h/mL
same,Cmax,[10],103.16 ng/mL
same,Tmax,[10],0.357 (0.148) hr
same,t1/2,[10],0.546 (0.353) hr
same,AUC0-t,[11],0.608 ng·h/mL
same,Cmax,[11],1.297 ng/mL
same,Tmax,[11],0.489 (0.215) hr
same,t1/2,[11],0.093 h
same,AUC0-t,[12],0.852 ng·h/mL
same,Cmax,[12],2.902 ng/mL
same,Tmax,[12],0.350 (0.173) hr
same,AUC0-t,[13],3.152 ng·h/mL
same,Cmax,[13],12.160 ng/mL
same,Tmax,[13],0.467 (0.209) hr
same,t1/2,[13],0.045 h
same,AUC0-t,[14],7.000 ng·h/mL
same,Cmax,[14],4.776 ng/mL
same,Tmax,[14],2.408 (3.729) hr
same,t1/2,[14],0.195 h
same,AUC0-t,[15],7.369 ng·h/mL
same,Cmax,[15],24.533 ng/mL
same,Tmax,[15],0.328 (0.135) hr
same,t1/2,[15],0.509 (0.731) hr
same,AUC0-t,[16],28.454 ng·h/mL
same,Cmax,[16],58.903 ng/mL
same,Tmax,[16],0.587 (0.167) hr
same,t1/2,[16],0.114 (0.061) hr
same,AUC0-t,[17],208.58 ng·h/mL
same,Cmax,[17],616.50 ng/mL
same,Tmax,[17],0.621 (0.141) hr
same,t1/2,[17],4.009 (1.684) hr
same,AUC0-t,[18],58.170 ng·h/mL
same,Cmax,[18],127.39 ng/mL
same,Tmax,[18],0.303 (0.113) hr
same,t1/2,[18],0.429 (0.687) hr
same,AUC0-t,[19],58.594 ng·h/mL
same,Cmax,[19],150.12 ng/mL
same,Tmax,[19],0.297 (0.104) hr
same,t1/2,[19],0.817 (1.200) hr
same,AUC0-t,[20],24.500 ng·h/mL
same,Cmax,[20],87.780 ng/mL
same,Tmax,[20],0.403 (0.143) hr
same,t1/2,[20],0.971 (0.667) hr
same,"Cmax and AUC compared with S,R-TLC388HCl",at all dose levels,"higher than those of S,R-TLC388HCl"
same,Dose-normalized AUClast,[21],1.22 ± 2.87 nM*h/(mg/m^2)
same,Dose-normalized Cmax,[21],2.60 ± 6.02 nM/(mg/m^2)
same,Tmax,[21],0.47 ± 0.3 h
same,t1/2,[21],0.75 ± 1.18 h
same,half-life,,a few minutes
"CCC1(OC(=O)C(C)ON=C2c3cc([N+](=O)[O-])cc([N+](=O)[O-])c3-c3c2cc([N+](=O)[O-])cc3[N+](=O)[O-])C(=O)OCc2c1cc1n(c2=O)Cc2cc3c(CN(C)C)c(O)ccc3nc2-1.Cl (stereo not drawn) [S,R TLC388HCl]",difference between PK profiles on Day 1 and Day 8,,no significant difference
same,AUC0-t,[1],1.646 ng·h/mL
same,Cmax,[1],3.188 ng/mL
same,Tmax,[1],0.606 (0.106) hr
same,t1/2,[1],2.603 (3.591) hr
same,AUC0-t,[2],4.728 ng·h/mL
same,Cmax,[2],2.743 ng/mL
same,Tmax,[2],0.933 (0.936) hr
same,AUC0-t,[3],1.564 ng·h/mL
same,Cmax,[3],4.073 ng/mL
same,Tmax,[3],0.467 (0.209) hr
same,AUC0-t,[4],0.821 ng·h/mL
same,Cmax,[4],2.196 ng/mL
same,Tmax,[4],0.354 (0.209) hr
same,t1/2,[4],0.197 (0.218) hr
same,AUC0-t,[5],8.671 ng·h/mL
same,Cmax,[5],29.303 ng/mL
same,Tmax,[5],0.250 (0.000) hr
same,t1/2,[5],2.828 (4.510) hr
same,AUC0-t,[6],3.624 ng·h/mL
same,Cmax,[6],12.930 ng/mL
same,Tmax,[6],0.396 (0.292) hr
same,t1/2,[6],0.258 (0.271) hr
same,AUC0-t,[7],138.61 ng·h/mL
same,Cmax,[7],263.58 ng/mL
same,Tmax,[7],0.709 (0.083) hr
same,t1/2,[7],3.030 (1.537) hr
same,AUC0-t,[8],10.818 ng·h/mL
same,Cmax,[8],28.259 ng/mL
same,Tmax,[8],0.415 (0.152) hr
same,t1/2,[8],0.460 (0.772) hr
same,AUC0-t,[9],14.387 ng·h/mL
same,Cmax,[9],43.180 ng/mL
same,Tmax,[9],0.403 (0.143) hr
same,t1/2,[9],0.483 (0.334) hr
same,AUC0-t,[10],11.285 ng·h/mL
same,Cmax,[10],63.194 ng/mL
same,Tmax,[10],0.357 (0.148) hr
same,t1/2,[10],0.639 (0.425) hr
same,AUC0-t,[11],0.449 ng·h/mL
same,Cmax,[11],0.916 ng/mL
same,Tmax,[11],0.489 (0.215) hr
same,t1/2,[11],0.087 h
same,AUC0-t,[12],0.574 ng·h/mL
same,Cmax,[12],1.811 ng/mL
same,Tmax,[12],0.350 (0.173) hr
same,t1/2,[12],0.050 (0.008) hr
same,AUC0-t,[13],2.190 ng·h/mL
same,Cmax,[13],8.287 ng/mL
same,Tmax,[13],0.467 (0.209) hr
same,t1/2,[13],0.072 h
same,AUC0-t,[14],5.396 ng·h/mL
same,Cmax,[14],3.325 ng/mL
same,Tmax,[14],2.408 (3.729) hr
same,t1/2,[14],0.133 (0.084) hr
same,AUC0-t,[15],4.707 ng·h/mL
same,Cmax,[15],15.753 ng/mL
same,Tmax,[15],0.328 (0.135) hr
same,t1/2,[15],0.115 (0.064) hr
same,AUC0-t,[16],18.892 ng·h/mL
same,Cmax,[16],38.413 ng/mL
same,Tmax,[16],0.512 (0.240) hr
same,t1/2,[16],0.202 (0.242) hr
same,AUC0-t,[17],139.26 ng·h/mL
same,Cmax,[17],403.60 ng/mL
same,Tmax,[17],0.621 (0.141) hr
same,t1/2,[17],3.329 (2.590) hr
same,AUC0-t,[18],34.254 ng·h/mL
same,Cmax,[18],76.660 ng/mL
same,Tmax,[18],0.303 (0.113) hr
same,t1/2,[18],0.411 (0.676) hr
same,AUC0-t,[19],39.251 ng·h/mL
same,Cmax,[19],97.288 ng/mL
same,Tmax,[19],0.297 (0.104) hr
same,t1/2,[19],0.764 (1.045) hr
same,AUC0-t,[20],13.377 ng·h/mL
same,Cmax,[20],47.340 ng/mL
same,Tmax,[20],0.450 (0.115) hr
same,t1/2,[20],1.416 (1.169) hr
same,Dose-normalized AUClast,[21],0.82 ± 1.92 nM*h/(mg/m^2)
same,Dose-normalized Cmax,[21],1.63 ± 3.77 nM/(mg/m^2)
same,Tmax,[21],0.47 ± 0.30 h
same,t1/2,[21],1.08 ± 1.77 h
same,half-life,,a few minutes
